ChEMBL document CHEMBL1201862, “PubChem BioAssay data set” (2004)
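A five-concentration, 48-hour dose response in 96-well plates underlies each endpoint, interpolated linearly between surrounding concentrations. GI50 is the concentration that inhibits growth by half.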 Activity calls are given as the source filed them. No stated cut-off is given here; in the data, active = GI50 up to about 1.1 µM and inactive = higher.

Legend:
Assay in all cases: NCI-60 cell line screen, 48 h
786-0 = system: 786-0
CAKI-1 = system: CAKI-1
EKVX = system: EKVX
HCT-116 = system: HCT-116
HCT-15 = system: HCT-15
HL-60 = system: HL-60
HOP-62 = system: HOP-62
KM12 = system: KM12
MOLT-4 = system: MOLT-4
NCI-H226 = system: NCI-H226
OVCAR-4 = system: OVCAR-4
SK-MEL-28 = system: SK-MEL-28
SN12C = system: SN12C
SNB-75 = system: SNB-75
TK-10 = system: TK-10
UACC-62 = system: UACC-62
A498 = system: A498

Measured: GI50

O=C(Cc1ccccc1)NN1C(=O)C(Cl)C1c1ccccc1 (configuration not stated)
inactive: 786-0 > 100 µM | CAKI-1 > 100 µM | EKVX > 100 µM | HCT-116 > 100 µM | HL-60 27.6 µM | HOP-62 > 100 µM | KM12 66.4 µM | MOLT-4 23 µM | NCI-H226 > 100 µM | OVCAR-4 39.1 µM | SK-MEL-28 > 100 µM | SN12C 35.9 µM | SNB-75 55.7 µM | TK-10 > 100 µM | UACC-62 77.4 µM
> 100 µM: HCT-15

CC(=O)Nc1ccc(S(=O)(=O)N/N=C/CN2C(=O)c3ccccc3C2=O)cc1
inactive: 786-0 > 100 µM | A498 > 100 µM | CAKI-1 > 100 µM | EKVX > 100 µM | HCT-116 > 100 µM | HL-60 > 100 µM | HOP-62 > 100 µM | KM12 > 100 µM | MOLT-4 > 100 µM | NCI-H226 > 100 µM | OVCAR-4 > 100 µM | SN12C > 100 µM | SNB-75 > 100 µM | TK-10 > 100 µM | UACC-62 > 100 µM
> 100 µM: HCT-15

c1ccc2c(c1)CCCc1cc3ccccc3nc1-2
inactive: 786-0 > 100 µM | A498 79.4 µM | CAKI-1 > 100 µM | EKVX > 100 µM | HCT-116 > 100 µM | HOP-62 > 100 µM | KM12 > 100 µM | MOLT-4 57.5 µM | OVCAR-4 68.1 µM | SK-MEL-28 > 100 µM | SN12C > 100 µM | SNB-75 75.3 µM | TK-10 > 100 µM | UACC-62 > 100 µM
> 100 µM: HCT-15

O=C(NCCO)c1ccc([N+](=O)[O-])cc1
inactive: 786-0 > 100 µM | A498 > 100 µM | CAKI-1 > 100 µM | EKVX > 100 µM | HL-60 > 100 µM | HOP-62 > 100 µM | KM12 > 100 µM | MOLT-4 > 100 µM | NCI-H226 > 100 µM | SK-MEL-28 > 100 µM | SN12C > 100 µM | SNB-75 > 100 µM | TK-10 > 100 µM | UACC-62 > 100 µM
> 100 µM: HCT-15
